The record followed here is US9708286B2, “Ingenol-3-acylates III and ingenol-3-carbamates” (LEO Laboratories Limited, priority 2010, dated 2017).

Each structure is given as a SMILES string.

Assay type in all cases: cell-based
In experiment [1] the test system is PMN's (polymorphonuclear leukocytes). The experiment can be described thus: Neutrophil oxidative burst. The note with it: Leukocyte, 40 min, read-out: Neutrophil oxidative burst Rel EC50 range, PMN from buffy coats, 40 min at RT, hydroethidine fluorescence; normalized to 5×10^−7 M PEP0005. The method, boiled down:
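Human buffy-coat neutrophils (2.5×10^5/well) in HBSS with 0.1% BSA, 5 mM glucose treated with compound premixed with 10 μM hydroethidine for 40 min at RT; fluorescence read at 485/579 nm. Normalized to 5×10^−7 M PEP0005; Rel EC50 is midway between fitted top and bottom, Abs EC50 gives 50% of PEP0005 maximum.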

Experiment [2] relates to Primary human epidermal keratinocytes, HeKa. The experiment in a line: HeKa cytokine release (IL-8). The note with it: Homo sapiens, HEKa, 6 h, read-out: HeKa cytokine release (IL-8) Rel EC50 range. Put shortly: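 Seeded cells exposed to compound dilutions for 6 h at 37° C; IL-8 in supernatant quantified by MSD sandwich electrochemiluminescence immunoassay. Effects normalized to positive control (1.5×10^−7 M PEP0005), four-parameter sigmoidal fit; Rel EC50 is concentration midway between fitted top and bottom.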

A further experiment relates to HeLa cells. The experiment can be described thus: Necrosis assay. The note with it: Homo sapiens, HeLa, 0.5 h, read-out: HeLa necrosis EC50 range. The method, boiled down:
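HeLa cells treated with compound at 10 μM to 400 μM (final) for 30 min at 37° C., viability then measured by PrestoBlue fluorescence (ex 535/em 630 nm). Normalized to 1% DMSO and 400 μM ingenol mebutate controls; AbsEC50 from four-parameter sigmoidal fit.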

For the compound `CC1=C[C@]23C(=O)[C@@H](C=C(CO)[C@@H](O)[C@]2(O)[C@H]1OC(=O)c1cc(C)n(C)c1C)[C@H]1[C@@H](C[C@H]3C)C1(C)C` [Compound 579, Ingenol 3-(1,2,5-trimethylpyrrole-3-carboxylate)], the figures for the concentration giving a half-maximal response (EC50) (in experiment [1]; in experiment [2]; in the experiment with HeLa cells) were under 20 nM, under 20 nM and 150000 to 350000 nM, respectively.
As for `CC1=C[C@]23C(=O)[C@@H](C=C(CO)[C@@H](O)[C@]2(O)[C@H]1OC(=O)c1c(C)c[nH]c1C)[C@H]1[C@@H](C[C@H]3C)C1(C)C` [Compound 580, Ingenol 3-(2,4-dimethyl-1H-pyrrole-3-carboxylate)], the concentration for a half-maximal effect (EC50) (commonly the concentration at which the effect is half-maximal) in experiment [1] was over 100 nM; in experiment [2], over 100 nM; in the experiment on HeLa cells, 150000 to 350000 nM.
Consider `CC1=C[C@]23C(=O)[C@@H](C=C(CO)[C@@H](O)[C@]2(O)[C@H]1OC(=O)c1cccn1C)[C@H]1[C@@H](C[C@H]3C)C1(C)C` [Compound 581, Ingenol 3-(1-methylpyrrole-2-carboxylate)], for which the 50% effective concentration (EC50) in experiment [1] is under 20 nM; in experiment [2], under 20 nM; with HeLa cells, 150000 to 350000 nM.
Take `CC1=C[C@]23C(=O)[C@@H](C=C(CO)[C@@H](O)[C@]2(O)[C@H]1OC(=O)c1cc(C)c[nH]1)[C@H]1[C@@H](C[C@H]3C)C1(C)C` [Compound 582, Ingenol 3-(4-methyl-1H-pyrrole-2-carboxylate)]: the EC50 in experiment [1] is under 20 nM; in experiment [2] it was under 20 nM; in the experiment on HeLa cells, 150000 to 350000 nM.
With `CC1=C[C@]23C(=O)[C@@H](C=C(CO)[C@@H](O)[C@]2(O)[C@H]1OC(=O)c1ccc(C)n1C)[C@H]1[C@@H](C[C@H]3C)C1(C)C` [Compound 583, Ingenol 3-(1,5-dimethylpyrrole-2-carboxylate)], the values for the half-maximal effective concentration (EC50) (in experiment [1]; in experiment [2]; with HeLa cells) were under 20 nM, under 20 nM and 150000 to 350000 nM, respectively.
Consider `CC1=C[C@]23C(=O)[C@@H](C=C(CO)[C@@H](O)[C@]2(O)[C@H]1OC(=O)c1[nH]ccc1C)[C@H]1[C@@H](C[C@H]3C)C1(C)C` [Compound 584, Ingenol 3-(3-methyl-1H-pyrrole-2-carboxylate)], for which the EC50 in experiment [1] is under 20 nM; in experiment [2], under 20 nM; in the experiment on HeLa cells, 150000 to 350000 nM.
With `CC1=C[C@]23C(=O)[C@@H](C=C(CO)[C@@H](O)[C@]2(O)[C@H]1OC(=O)c1cccn1C1CC1)[C@H]1[C@@H](C[C@H]3C)C1(C)C` [Compound 585, Ingenol 3-(1-cyclopropylpyrrole-2-carboxylate)], the EC50 in experiment [1] was under 20 nM; in experiment [2] it was under 20 nM; with HeLa cells it was under 150000 nM.
Regarding `CCn1cc(C)c(C(=O)O[C@H]2C(C)=C[C@]34C(=O)[C@@H](C=C(CO)[C@@H](O)[C@]23O)[C@H]2[C@@H](C[C@H]4C)C2(C)C)c1C` [Compound 586, Ingenol 3-(1-ethyl-2,4-dimethyl-pyrrole-3-carboxylate)], the EC50 in experiment [1] was under 20 nM; in experiment [2], under 20 nM; in the experiment with HeLa cells it was under 150000 nM.
In the case of `C=CCn1cc(C)c(C(=O)O[C@H]2C(C)=C[C@]34C(=O)[C@@H](C=C(CO)[C@@H](O)[C@]23O)[C@H]2[C@@H](C[C@H]4C)C2(C)C)c1C` [Compound 587, Ingenol 3-(1-allyl-2,4-dimethyl-pyrrole-3-carboxylate)], the results for the half-maximal effective concentration (EC50) (in experiment [1]; in experiment [2]; in the experiment with HeLa cells) were under 20 nM, under 20 nM and under 150000 nM, respectively.
For the compound `CC1=C[C@]23C(=O)[C@@H](C=C(CO)[C@@H](O)[C@]2(O)[C@H]1OC(=O)c1c(C)cn(CC2CC2)c1C)[C@H]1[C@@H](C[C@H]3C)C1(C)C` [Compound 588, Ingenol 3-(1-(cyclopropylmethyl)-2,4-dimethyl-pyrrole-3-carboxylate)], the figures for the EC50 (in experiment [1]; in experiment [2]; with HeLa cells) were under 20 nM, under 20 nM and under 150000 nM, respectively.
